Measured values: US7534806B2, “Method for treating neuropathic pain and associated syndromes” (Avigen, Inc., priority 2004, dated 2009)
“Also recorded” adds a separate entry of the source.

How the values were obtained:
[1] = humans, cited from earlier work
[2] = system: astrocyte activation (Glial Fibrillary Acidic Protein staining); experiment: GFAP immunohistochemistry of lumbar spinal cord from CCI rats (astrocyte activation); assay type: in vivo, rat; conditions: 7.5 mg/kg ip BID for 5 days
Description: Study of Attenuation of Glial Cell Activation in Ibudilast-Treated CCI Rats: At the end of the 5-day study, animals (4/group) from the CCI vehicle control or CCI ibudilast group were euthanized and lumbar spinal cord tissue was isolated and stained for astrocyte activation with an antibody reactive against Glial Fibrillary Acidic Protein (GFAP) as described in […] and J A DeLeo, Brain Research (2002) 956:294-301. FIG. 6 depicts a typical staining profile from CCI vehicle-treated animals. Enlarged (activated) astrocytes, typically observed in subjects with neuropathic pain (CCI rats in this case), are visible in the CCI group.

[3] = system: mechanical allodynia in rat chronic constriction injury (CCI) model; experiment: von Frey test of mechanical allodynia in rat chronic constriction injury (CCI) model of neuropathic pain; assay type: in vivo
[4] = system: mechanical allodynia in rat Chung model; experiment: von Frey test of mechanical allodynia in rat Chung model of neuropathic pain; assay type: in vivo
Protocol: Test Agents: Haorui and Sigma ibudilast was formulated as described above. Ibudilast was administered at 10 mg/kg twice daily, (3.7 ml/kg of 2.7 mg/ml in 35% PEG/saline) i.p. each morning (typically 8 am) and pm (typically 3 pm). Animals: Pathogen-free adult male Wistar rats (150-200 g; Elevage Janvier) were used in all experiments. Rats were housed in temperature (23+/−3° C.) and light (12:12 light: dark; lights on at 0700 hr) controlled rooms with standard rodent chow and water available ad libitum. Behavioral testing was performed during the light cycle. Chung model: Rats were anesthetized under isoflurane (4-5% induction and 2-3% maintenance in 100% oxygen) and an incision at the L4-S2 levels was performed to expose the left L5 and L6 spinal nerves. A ligature was tied tightly around each nerve. The wound was then sutured. The rats received an injection of clamoxil and were allowed to recover. Sham controls were subjected to the same surgical procedure except that the nerves were not ligated. […] Multi-day Study for Neuropathic Pain Efficacy: A 3-day efficacy study was undertaken wherein the animals (n=3-4/group for shams and 5/group for Chung animals) were administered 10 mg/kg ibudilast or 35% PEG/saline vehicle twice daily and mechanical allodynia was monitored at various time intervals post-dosing. […] A pre-dose reading was acquired each day in order to assess durability of efficacy.

[5] = system: mechanical allodynia in rat model of taxol-induced neuropathic pain; experiment: von Frey test of mechanical allodynia in rat model of taxol-induced neuropathic pain; assay type: in vivo
Protocol: Test Agents: Ibudilast was formulated as described above. Ibudilast was administered at 7.5 mg/kg (2.7 ml/kg of 2.8 mg/ml in 35% PEG/saline i.p. each morning (typically 8 am) and pm (typically 3 pm). Animals: Pathogen-free adult male Sprague-Dawley rats (280-350 g; Harlan Labs) were used in all experiments. Rats were housed in temperature (23+/−3° C.) and light (12:12 light: dark; lights on at 0700 hr) controlled rooms with standard rodent chow and water available ad libitum. Behavioral testing was performed during the light cycle. Taxol Model: Neuropathic pain was induced by administration of 4 i.p. injections on alternate days (Day 0, 2, 4, and 6) of 1 mg/kg taxol (Paclitaxel®, cumulative dose 4 mg/kg). Neuropathic pain onset was maximal around day 19 post taxol administration (Day 0). Ibudilast or vehicle control treatment initiated at either day 19 (treatment paradigm) or day 12 (prevention paradigm). Allodynia results were determined prior to the morning administration of vehicle or ibudilast. Behavioral Measures von Frey Test: The von Frey test was performed within the sciatic or saphenous innervation area of the hindpaws as previously described above for the CCI model. All testing was conducted in the am prior to the morning dose of ibudilast for that day. Multi-day Study for Neuropathic Pain Efficacy: 7.5 mg/kg Ibudilast was administered twice daily for 7 days starting day 20 after the first taxol dose (Day 0). Mechanical allodynia was assessed prior to the first dose of ibudilast each day. Prevention of Taxol-Induced Neuropathy: A second study was performed identical in nature to the multi-day study described above except that ibudilast or vehicle control administrations were initiated on day 12 just as allodynia was becoming clearly evident.

[6] = Dose selection study: rat tolerability to intraperitoneal ibudilast; assay type: in vivo
Description: Dose Selection Study: Preliminary studies were designed to assess rat tolerability to single and multiple intraperitoneal administrations of ibudilast. […] These included extended head, increased respiratory rate, occasional circling behavior and vocalization, and lethargy.

activated microglia = conditions: dose-dependent; Mizuno et al. 2004; cited from earlier work
in vivo = conditions: rat
Protocol: Pharmacokinetics. Plasma Ibudilast Concentrations Correlating with Efficacy: Dedicated pharmacokinetic studies in normal rats were performed with ibudilast dosing i.p. or p.o. in order to correlate drug plasma levels with changes in mechanical allodynia (i.e. neuropathic pain efficacy). Following dosing (time t=0), serial bleeding from n=3 rats/time point and 6 time points interspersed between 5 min and 6 hr was obtained, plasma was isolated, and ibudilast concentrations were determined by a HPLC and two-dimensional mass spectrometry (LC/MS/MS) method (described in Example 4) sensitive to ≦1 ng/ml. […] Moreover, pharmacokinetic-pharmacodynamic analyses involving PK parameters including Cmax, area under the curve (AUC), and elimination half-life (t1/2) indicated Cmax is an important parameter in establishing efficacy.
(§1) Tissue Concentration Analysis: A solution of ibudilast (Haorui) at 0.5 mg/ml in DMSO was used as the working stock. A solution of ibudilast at 0.5 mg/ml in DMSO was prepared using the powdered ibudilast provided with the study samples and used as the working stock. Calibration standards in plasma were prepared by diluting each 0.5 mg/ml stock 1 in 100 into rat plasma to 5000 ng/ml (5 μl+495 μl), then diluting further, to 2.29 ng/ml, by 3-fold serial dilution with plasma. Standards 3, 5 and 7 were used as low, mid and high QC samples, respectively.
(§2) Calibration standards, QC and plasma study samples were prepared for HPLC injection by precipitating 25 μl of plasma with 3× volumes (75 μl) of ice cold acetonitrile containing 50 ng/ml diphenhydramine and 100 ng/ml dextromethorphan as the internal standards. Tissue study samples were prepared for HPLC injection by adding 1 μl of water per mg of tissue plus 3× volumes (relative to water) of ice cold acetonitrile containing 50 ng/ml diphenhydramine and 100 ng/ml dextromethorphan as the internal standards, then homogenized with an electric homogenizer. Following centrifugation at 6100 g for 30 minutes, 40 μl of each supernatant was diluted with 200 μl of 0.2% formic acid in water and analyzed by the following LC/MS/MS conditions: • HPLC: Shimadzu VP System • Mobile Phase: 0.2% formic acid in water (A) and in methanol (B) • Column: 2×10 mm Peeke Scientific DuraGel G C18 guard cartridge • Injection Volume: 100 μl • Gradient: 5-95% B in 2 minutes after a 0.75 minute wash • Flow Rate: 400 μl/min • Mass Spectrometer: Applied Biosystems/MDS SCIEX API 3000 • Interface: TurboIonSpray (ESI) at 400° C. • Ionization Mode: Positive Ion • Q1/Q3 Ions: 231.2/161.2 for ibudilast Studies and Results

[7] = administered systemically; Sugiyama et al. 1993; cited from earlier work
[8] = Rat ibudilast plasma PK and tissue distribution (plasma, muscle, brain, spinal cord); assay type: in vivo
Protocol: Test Agents: Ibudilast was prepared in 15% ethanol/saline. Drug stability and concentration were validated by HPLC/MS/MS.
Animals: Pathogen-free adult male Sprague-Dawley rats (280-350 g; Harlan Labs) were used in all experiments. Rats were housed in temperature (23+/−3° C.) and light (12:12 light: dark; lights on at 0700 hr) controlled rooms with standard rodent chow and water available ad libitum. Behavioral testing was performed during the light cycle.
PK Analysis: Rats (n=3/group) were administered 5 mg/kg ibudilast, i.p. and plasma, muscle, brain, and spinal cord were harvested at 5, 15, 60, 180, and 420 min post administration.
as §1
as §2, with “Tissue study samples were prepared for HPLC injection by adding 1 μl of water per mg of tissue plus 3× volumes (relative to water) of ice cold acetonitrile containing 50 ng/ml diphenhydramine and 100 ng/ml dextromethorphan as the internal standards, then homogenized with an electric homogenizer.” left out

## CC(C)C(=O)c1c(C(C)C)nn2ccccc12 [Ibudilast, 3-isobutyryl-2-isopropylpyrazolo[1,5-a]pyridine]
[1]; 10 mg BID or TID, Cai-Li et al. 2003
  multi-dose steady state Cmax: 45 ng/mL
[1]; 10 mg, Ketas Package Insert
  single dose Cmax: 25 ng/mL
[2]
  glial cell activation as measured by GFAP staining: Reduced glial cell activation
[3]; 21 mg/kg p.o. twice daily
  days of treatment after which attenuation became durable (pm dosing to next day's pre-am test): 2 days
  earliest time of attenuation of allodynia after the first dose: 4 h
[3]; 21 mg/kg p.o. twice daily 2 days then 25.5 mg/kg 3 days, 35% PEG/saline
  attenuation of allodynia, oral twice daily: Attenuation of allodynia was observed
[3]; 50 mg/kg oral gavage once daily
  days of dosing to durable efficacy lasting overnight: ≤ 7 days
[3]; 50 mg/kg oral gavage once daily, 10% HCO-60, 10% PEG400 in saline, following 2 days of dosing, shortly after morning dose
  magnitude of allodynia, oral once daily: significantly attenuated the magnitude of allodynia
[3]; 2.5, 7.5 or 10 mg/kg i.p. twice daily, 1 week, significant at +2 hr post-administration
  magnitude of allodynia (50% withdrawal threshold), multi-day study: attenuated the magnitude of allodynia
[3]; doses >2.5 mg/kg i.p. bid, within two days of regimen
  time after treatment at which reversal of neuropathic pain was still evident: 16 h
[3]; sham-operated rats, single i.p. 10-15 mg/kg
  paw withdrawal thresholds in ibudilast sham animals: no changes in paw withdrawal thresholds
[3]; single i.p. 10-15 mg/kg
  time at which reduction in allodynia was apparent: 1 h
  time of maximum reduction in allodynia: 2 h
  time of return to baseline: 16 h
[3]; single i.p. administration of 10-15 mg/kg, measured 1, 2, 4, 16 hr post-administration
  acute reduction in allodynia relative to CCI vehicle animals: showed a reduction in allodynia
[4]; 10 mg/kg i.p. b.i.d., within two days of regimen
  time after treatment at which reversal of neuropathic pain was still evident (pre-dose reading): 16 h
[4]; 10 mg/kg i.p. twice daily, 3 days
  magnitude of allodynia (50% withdrawal threshold): attenuated the magnitude of allodynia
[5]; 7.5 mg/kg i.p. BID initiated on day 12
  prevention of taxol-induced neuropathy development: prevented the further neuropathy development
[5]; 7.5 mg/kg i.p. twice daily
  time to return to allodynic state after discontinuation: ≤ 1 days
[5]; 7.5 mg/kg i.p. twice daily for 7 days, measured prior to morning dose
  magnitude of allodynia, treatment of established taxol neuropathy: attenuated the magnitude of allodynia; also recorded: statistically significantly different from vehicle control
[6]; i.p. doses >20 mg/kg in 35% PEG/saline
  duration of adverse behavioral effects: up to 1 hr
[6]; i.p. doses >20 mg/kg in 35% PEG/saline, volume </=5 ml/kg
  adverse behavioral effects: produced adverse behavioral effects
[6]; rat, in vivo, ip, 15 mg/kg
  tolerability: generally well tolerated
Activated microglia
  production of IL-10, NGF, GDNF and NT-4: enhance
  production of nitric oxide (NO), reactive oxygen species, IL-1β, IL-6 and TNF: suppress
In vivo
  Cmax: ≥ 125 ng/mL
In vivo; ip, 2.5 mg/kg
  Cmax: 125 ng/mL
In vivo; ip, 7.5 mg/kg
  Cmax: 1710 ng/mL
In vivo; po, 21 mg/kg
  Cmax: 325 ng/mL
In vivo; po, 50 mg/kg
  Cmax: 387 ng/mL
[7]
  blood-brain barrier crossing: crosses the blood-brain barrier
[8]; 5 mg/kg i.p.
  tissue distribution: well distributed to peripheral (e.g. muscle) and central (e.g. brain and spinal cord) tissues
[8]; male, Sprague-Dawley, rat, ip, 5 mg/kg i.p., plasma, muscle, brain, spinal cord, read-out: elimination half-life in all tissue compartments
  half-life: 1.67 to 2.32 h
[8]; male, Sprague-Dawley, rat, plasma and CNS tissues (brain, spinal cord), ip, ~5 mg/kg i.p., 15% ethanol/saline, read-out: maximal concentration (Cmax) in plasma and CNS tissues
  Cmax: ~1000 ng/mL

## CN1CC[C@]23c4c5ccc(O)c4O[C@H]2[C@@H](O)C=C[C@H]3[C@H]1C5 [morphine]
[3]; 7.5 mg/kg ibudilast ip bid alone or with 1 mg/kg morphine s.c., several days
  reversal of allodynia in comparison to vehicle control, combination study: greater than that by ibudilast
